Measured values published in US20130324576A1, “THERAPEUTIC COMPOUNDS” (Takeda Pharmaceutical Company Limited, priority 2012, published 2013).
pIC50: −log10 of the molar value.

Biological target: T1, human PKR1 receptors (Homo sapiens, UniProt Q8TCW9)
T1 construct: expressed in transfected cells; host or cells: RBL2H3 cells (rat basophilic leukaemia line) expressing human PKR1
Test: PKR1 antagonist assay: block of PK1-mediated intracellular calcium release (FLIPR Tetra, Calcium 5 dye)
Type: cell-based
Details: RBL2H3 cells expressing human PKR1; 10 min pre-incubation, stimulation with PK1 at EC80; calcium fluorescence
Experimental: Prokineticin receptor 1 (PKR1) antagonists may be functionally assessed by measurement of change in intracellular calcium levels induced by Gq mediated increase in inositol triphosphate (IP3) levels. The ability of a compound to block the intracellular release of calcium mediated by PK1 in RBL2H3 cells expressing human PKR1 receptors is determined as a measure of the compound's antagonist activity in vitro.
Approximately 10,000 cells per assay well are seeded in normal culture medium in a 384 well plate (Corning). Twenty-four hours after seeding, the cells are loaded with a calcium sensitive fluorescent dye by replacing the culture medium with assay buffer (1× Hanks buffered saline, 25 mM HEPES, 0.1% w/v fatty acid free BSA (bovine serum albumin), pH 7.4) containing 1 mM probenecid and 1× Calcium 5 Reagent (Molecular Devices). Cells are incubated at 37° C. for 1 hour to allow for dye uptake.
To test for antagonist activity, test compounds at a final concentration range between 0.32 nM-10 μM (diluted in assay buffer) are added to the assay wells and allowed to incubate for 10 minutes prior to stimulation with PK1. After incubation with test compounds the assay plate is placed in a FLIPR Tetra (Molecular Devices) and PK1 (diluted in assay buffer) is added at the determined EC80 concentration (final). Ligand-dependent changes in intracellular calcium levels are determined by measuring changes in fluorescence of the dye at […] following excitation at 485 nm.

T1 sequence (Q8TCW9 whole entry): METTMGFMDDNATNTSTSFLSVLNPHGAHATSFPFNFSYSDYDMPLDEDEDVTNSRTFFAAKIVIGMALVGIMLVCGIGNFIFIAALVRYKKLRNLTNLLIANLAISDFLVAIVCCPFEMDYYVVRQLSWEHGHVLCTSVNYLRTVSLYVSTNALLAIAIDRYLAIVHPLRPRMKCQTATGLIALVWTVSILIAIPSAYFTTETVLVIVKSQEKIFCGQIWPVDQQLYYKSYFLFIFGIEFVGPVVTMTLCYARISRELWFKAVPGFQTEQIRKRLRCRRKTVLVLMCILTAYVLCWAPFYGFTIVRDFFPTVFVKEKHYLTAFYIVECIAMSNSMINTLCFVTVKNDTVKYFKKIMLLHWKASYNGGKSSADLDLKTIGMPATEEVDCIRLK

First: Cc1n[nH]c(C)c1S(=O)(=O)N1CCC(Oc2ccc3ccccc3c2)CC1 [Example 33, 1-[(3,5-Dimethyl-1H-pyrazol-4-yl)sulfonyl]-4-(naphthalen-2-yloxy)piperidine]
Second: Cc1n[nH]c(C)c1S(=O)(=O)N1CCC(Oc2ccccc2F)CC1 [Example 76, 1-((3,5-Dimethyl-1H-pyrazol-4-yl)sulfonyl)-4-(2-fluorophenoxy)piperidine]
The pIC50 of the first is 0.93 log units higher: 6.36 for the first, 5.43 for the second.

First: Cc1nn(C)c(C)c1S(=O)(=O)N1CCC(Oc2ccc(Cl)cc2)CC1 [Example 5, 4-(4-Chlorophenoxy)-1-[(1,3,5-trimethyl-1H-pyrazol-4-yl)sulfonyl]piperidine]
Second: Cc1c(S(=O)(=O)N2CCC(Oc3ccc(Cl)cc3)CC2)c(C(F)(F)F)nn1C [Example 16, 4-(4-Chlorophenoxy)-1-{[1,5-dimethyl-3-(trifluoromethyl)-1H-pyrazol-4-yl]sulfonyl}piperidine]
The pIC50 of the first is 0.94 log units higher: 6.28 for the first, 5.34 for the second. The first is the more potent here.

First: Cc1nn(C)c(Cl)c1S(=O)(=O)N1CCC(Cc2ccc(Cl)cc2)CC1 [Example 68, 1-((5-Chloro-1,3-dimethyl-1H-pyrazol-4-yl)sulfonyl)-4-(4chlorobenzyl)piperidine]
Second: Cc1nn(C)c(C)c1S(=O)(=O)N1CCC(Cc2ccc(Cl)c(Cl)c2)CC1 [Example 56, 4-(3,4-Dichlorobenzyl)-1-((1,3,5-trimethyl-1H-pyrazol-4-yl)sulfonyl)piperidine]
The pIC50 of the first is 0.33 log units lower: 5.69 for the first, 6.02 for the second. The second is the more potent here.

First: Cc1cnn(C)c1S(=O)(=O)N1CCC(Oc2ccc(Cl)cc2Cl)CC1 [Example 36, 4-(2,4-Dichlorophenoxy)-1-(1,4-dimethyl-1H-pyrazole-5-sulfonyl)piperidine]
Second: Cc1cnn(C)c1S(=O)(=O)N1CCC(Oc2ccc(Cl)cc2)CC1 [Example 37, 4-(4-Chlorophenoxy)-1-(1,4-dimethyl-1H-pyrazole-5-sulfonyl)piperidine]
The pIC50 of the first is 0.83 log units higher: 5.96 for the first, 5.13 for the second. The first is the more potent here.

Compared with `COc1c(F)cc(OC2CCN(S(=O)(=O)c3c(C)nn(C)c3C)CC2)cc1F` [Example 44, 4-(3,5-Difluoro-4-methoxyphenoxy)-1-(trimethyl-1H-pyrazole-4-sulfonyl)piperidine], `Cc1nn(C)c(C)c1S(=O)(=O)N1CCC(Oc2c(F)cc(Cl)cc2F)CC1` [Example 46, 4-(4-Chloro-2,6-difluorophenoxy)-1-(trimethyl-1H-pyrazole-4-sulfonyl)piperidine] is 0.71 log units higher in pIC50: 5.29 for the first, 6.00 for the second.

Compared with `Cc1nn(C)c(C)c1S(=O)(=O)N1CCC(Oc2ccc(Br)cc2F)CC1` [Example 14, 4-(4-Bromo-2-fluorophenoxy)-1-[(1,3,5-trimethyl-1H-pyrazol-4-yl)sulfonyl]piperidine], `Cc1n[nH]c(C)c1S(=O)(=O)N1CCC(Oc2ccc(Cl)cc2Cl)CC1` [Example 22, 4-(2,4-Dichlorophenoxy)-1-[(3,5-dimethyl-1H-pyrazol-4-yl)sulfonyl]piperidine] is 0.40 log units lower in pIC50: 6.33 for the first, 5.93 for the second. The first is the more potent here.

`COc1cc(Cl)ccc1OC1CCN(S(=O)(=O)c2c(C)n[nH]c2C)CC1` [Example 73, 4-(4-Chloro-2-methoxyphenoxy)-1-((3,5-dimethyl-1H-pyrazol-4-yl)sulfonyl)piperidine] and `Cc1n[nH]c(C)c1S(=O)(=O)N1CCC(Oc2ccc(Cl)cc2C(F)(F)F)CC1` [Example 40, 4-[4-Chloro-2-(trifluoromethyl)phenoxy]-1-(3,5-dimethyl-1H-pyrazole-4-sulfonyl)piperidine] are within 0.2 log units of each other in pIC50: 6.70 for the first, 6.68 for the second.

Going from `Cc1n[nH]c(C)c1S(=O)(=O)N1CCC(C(C#N)c2ccc(Cl)cc2)CC1` (centres unmarked) [Example 93, 2-(4-Chlorophenyl)-2-(1-((3,5-dimethyl-1H-pyrazol-4-yl)sulfonyl)piperidin-4-yl)acetonitrile] to `Cc1n[nH]c(C)c1S(=O)(=O)N1CCC(C(c2ccc(Cl)cc2)C(F)F)CC1` (centres unmarked) [Example 111, 4-(1-(4-Chlorophenyl)-2,2-difluoroethyl)-1-((3,5-dimethyl-1H-pyrazol-4-yl)sulfonyl)piperidine], the pIC50 rises from 6.21 to 6.47 (0.26 log units).

`Cc1nn(C)c(C)c1S(=O)(=O)N1CCC(C(O)c2ccc(Cl)cc2)CC1` (centres unmarked) [Example 95, (4-Chlorophenyl)(1-((1,3,5-trimethyl-1H-pyrazol-4-yl)sulfonyl)piperidin-4-yl)methanol] was tested, and the pIC50 was 6.15.
